Data: US7847108B2, “Oxathiin carboxamides” (Bayer CropScience AG, priority 2003, dated 2010)

Experiment: logP determination by HPLC on reversed-phase column (EEC Directive 79/831 Annex V.A8)
Assay type: physicochemical
Conditions: for logP: Table 1 logP / m.p., C18, 43° C., acidic range (pH 2.3)
Method: The given logP values were determined in accordance with EEC Directive 79/831 Annex V.A8 by HPLC (High Performance Liquid Chromatography) on a reversed-phase column (C 18). Temperature: 43° C. […] Calibration was carried out using unbranched alkan-2-ones (having 3 to 16 carbon atoms) with known logP values (determination of the logP values by the retention times using linear interpolation between two successive alkanones).

Row | SMILES | chromatographic logP (reversed-phase C18 HPLC column, pH 2.3, C18, 43° C., read-out: logP (pH 2.3)) | logP
1 | CO/N=C/c1ccc(-c2ccccc2NC(=O)C2=C(C(F)(F)F)OCCS2)cc1 [Example 1, N-[4′-(methoxyiminomethyl)-biphenyl-2-yl]-6-trifluoromethyl-2,3-dihydro-1,4-oxathiin-5-carboxamide] | 3.51 | –
2 | CC(C)CC(C)c1ccccc1NC(=O)C1=C(C(F)(F)F)OCC(C)S1 (stereo not drawn) [Example 3] | – | 4.24
3 | CC1COC(C(F)(F)F)=C(C(=O)Nc2ccccc2C(C)CC(C)(C)C)S1 (stereo not drawn) [Example 4] | – | 4.53
4 | Cc1cc(-c2ccccc2NC(=O)C2=C(C(F)(F)F)OCC(C)S2)ccc1F (stereo not drawn) [Example 5] | – | 3.98
5 | CC1COC(C(F)(F)F)=C(C(=O)Nc2ccccc2-c2ccc(Cl)c(Cl)c2)S1 (stereo not drawn) [Example 6] | – | 4.26
6 | CC1COC(C(F)(F)F)=C(C(=O)Nc2ccccc2-c2ccc(Cl)c(C(F)(F)F)c2)S1 (stereo not drawn) [Example 7] | – | 4.30
7 | CC(C)ON=Cc1ccc(-c2ccccc2NC(=O)C2=C(C(F)(F)F)OCC(C)S2)cc1 (stereo not drawn) [Example 8] | – | 4.57
8 | CC1COC(C(F)(F)F)=C(C(=O)Nc2ccccc2-c2ccc(C(F)(F)F)cc2)S1 (stereo not drawn) [Example 9] | – | 4.06
9 | CCCON=Cc1ccc(-c2ccccc2NC(=O)C2=C(C(F)(F)F)OCCS2)cc1F [Example 25] | – | 4.42
10 | O=C(Nc1ccccc1C1CCCCC1)C1=C(C(F)(F)F)OCCS1 [Example 28] | – | 3.69
11 | O=C(Nc1ccccc1-c1ccc(Cl)c(C(F)(F)F)c1)C1=C(C(F)(F)F)OCCS1 [Example 30] | – | 4.03
12 | CC(CC1CCCCC1)c1ccccc1NC(=O)C1=C(C(F)(F)F)OCCS1 (stereo not drawn) [Example 31] | – | 4.71
13 | O=C(Nc1ccccc1-c1cc(F)cc(F)c1)C1=C(C(F)(F)F)OCCS1 [Example 32] | – | 3.35
14 | O=C(Nc1ccccc1-c1ccc(I)cc1)C1=C(C(F)(F)F)OCCS1 [Example 33] | – | 3.85
15 | C=CCC(C)c1ccccc1NC(=O)C1=C(C(F)(F)F)OCCS1 (stereo not drawn) [Example 34] | – | 3.33
16 | Cc1ccc(-c2ccccc2NC(=O)C2=C(C(F)(F)F)OCCS2)cc1F [Example 36] | – | 3.62
17 | CCCC(C)c1ccccc1NC(=O)C1=C(C(F)(F)F)OCCS1 (stereo not drawn) [Example 39] | – | 3.63
18 | C#CCON=C(C)c1ccc(-c2ccccc2NC(=O)C2=C(C(F)(F)F)OCCS2)cc1 [Example 40] | – | 3.76
19 | CON=C(N)c1ccc(-c2ccccc2NC(=O)C2=C(C(F)(F)F)OCCS2)cc1 [Example 41] | – | 1.96
20 | CCCCCCCCC(C)c1ccccc1NC(=O)C1=C(C(F)(F)F)OCCS1 (stereo not drawn) [Example 42] | – | 5.48

Row | SMILES | chromatographic logP (reversed-phase C18 HPLC column, pH 2.3, C18, 43° C., read-out: logP (pH 2.3)) | logP
21 | O=C(Nc1ccccc1-c1cc(F)cc(Cl)c1)C1=C(C(F)(F)F)OCCS1 [Example 44] | – | 3.60
22 | CON=C(C)c1ccc(-c2ccccc2NC(=O)C2=C(C(F)(F)F)OCCS2)cc1Cl [Example 45] | – | 3.45
23 | CON=C(C)c1ccc(-c2ccccc2NC(=O)C2=C(C(F)(F)F)OCCS2)cc1F [Example 46] | – | 3.69
24 | CCCCCC(C)c1ccccc1NC(=O)C1=C(C(F)(F)F)OCCS1 (stereo not drawn) [Example 48] | – | 4.34
25 | CC(c1ccccc1NC(=O)C1=C(C(F)(F)F)OCCS1)C1CCCCC1 (stereo not drawn) [Example 49] | – | 4.31
26 | CC(C)CC(C)c1cc(F)ccc1NC(=O)C1=C(C(F)(F)F)OCCS1 (stereo not drawn) [Example 50] | – | 3.94
27 | CCC(CC)c1ccccc1NC(=O)C1=C(C(F)(F)F)OCCS1 [Example 51] | – | 3.62
28 | CCCC(C)c1cc(F)ccc1NC(=O)C1=C(C(F)(F)F)OCCS1 (stereo not drawn) [Example 52] | – | 3.67
29 | CCC(C)CC(C)c1ccccc1NC(=O)C1=C(C(F)(F)F)OCCS1 (stereo not drawn) [Example 54] | – | 4.25
30 | CC(CC1CC1(Cl)Cl)c1ccccc1NC(=O)C1=C(C(F)(F)F)OCCS1 (stereo not drawn) [Example 55] | – | 3.92
31 | CCC(C)(C)CC(C)c1ccccc1NC(=O)C1=C(C(F)(F)F)OCCS1 (stereo not drawn) [Example 58] | – | 4.48
32 | CC1CSC(C(=O)Nc2ccccc2C2CC3CCC2C3)=C(C(F)(F)F)O1 (stereo not drawn) [Example 59] | – | 5.36
33 | CC1CC(C)(C)c2cccc(NC(=O)C3=C(C(F)(F)F)OCCS3)c21 (stereo not drawn) [Example 60] | – | 4.18
34 | CC1CSC(C(=O)Nc2ccccc2-c2ccc(C(F)(F)F)cc2)=C(C(F)(F)F)O1 (stereo not drawn) [Example 61] | – | 4.08
35 | CON=Cc1ccc(-c2ccccc2NC(=O)C2=C(C(F)(F)F)OC(C)CS2)cc1 (stereo not drawn) [Example 62] | – | 3.81
36 | CC(C)CC(C)c1ccccc1NC(=O)C1=C(C(F)(F)F)OC(C)CS1 (stereo not drawn) [Example 63] | – | 4.27
37 | CC(C)ON=Cc1ccc(-c2ccccc2NC(=O)C2=C(C(F)(F)F)OC(C)CS2)cc1 (stereo not drawn) [Example 64] | – | 4.56
38 | CC1CSC(C(=O)Nc2ccccc2-c2ccc(Cl)c(Cl)c2)=C(C(F)(F)F)O1 (stereo not drawn) [Example 65] | – | 4.27
39 | CC1CSC(C(=O)Nc2ccccc2C(C)CC(C)(C)C)=C(C(F)(F)F)O1 (stereo not drawn) [Example 66] | – | 4.51
40 | CC1CSC(C(=O)Nc2ccc(F)cc2-c2ccc(Cl)c(Cl)c2)=C(C(F)(F)F)O1 (stereo not drawn) [Example 67] | – | 4.32

Row | SMILES | chromatographic logP (reversed-phase C18 HPLC column, pH 2.3, C18, 43° C., read-out: logP (pH 2.3)) | logP
41 | CCCON=Cc1ccc(-c2ccccc2NC(=O)C2=C(C(F)(F)F)OC(C)CS2)cc1F (stereo not drawn) [Example 68] | – | 4.77
42 | Cc1ccc(-c2ccccc2NC(=O)C2=C(C(F)(F)F)OC(C)CS2)cc1F (stereo not drawn) [Example 69] | – | 3.99
43 | Cc1cc(-c2ccccc2NC(=O)C2=C(C(F)(F)F)OC(C)CS2)ccc1F (stereo not drawn) [Example 70] | – | 3.99
44 | CC1CSC(C(=O)Nc2ccccc2-c2ccc(C(F)(F)F)c(F)c2)=C(C(F)(F)F)O1 (stereo not drawn) [Example 71] | – | 4.08
45 | O=C(Nc1ccc(F)cc1-c1cc(F)cc(F)c1)C1=C(C(F)(F)F)OCCS1 [Example 73] | – | 3.49
46 | O=C(Nc1c(F)cccc1-c1cc(F)cc(F)c1)C1=C(C(F)(F)F)OCCS1 [Example 74] | – | 3.20
47 | O=C(Nc1cc(F)ccc1-c1cc(F)cc(F)c1)C1=C(C(F)(F)F)OCCS1 [Example 75] | – | 3.70
48 | CCCCCCc1ccccc1NC(=O)C1=C(C(F)(F)F)OCCS1 [Example 76] | – | 4.25
49 | CCCC(CC)c1ccccc1NC(=O)C1=C(C(F)(F)F)OCCS1 (stereo not drawn) [Example 77] | – | 4.07
50 | N#Cc1ccc(-c2ccccc2NC(=O)C2=C(C(F)(F)F)OCCS2)cc1 [Example 78] | – | 2.87
51 | O=C(Nc1ccccc1-c1ccc(Cl)c(Cl)c1)C1=C(C2CC2)OCCS1 [Example 80] | – | 3.53
52 | CC(CC(C)(C)C)c1ccccc1NC(=O)C1=C(C(F)F)OCCS1 (stereo not drawn) [Example 81] | – | 4.29
53 | CC1CC(C)(C)c2cccc(NC(=O)C3=C(C(F)F)OCCS3)c21 (stereo not drawn) [Example 83] | – | 4.00
54 | O=C(Nc1ccccc1-c1ccc(Cl)c(Cl)c1)C1=C(C(F)F)OCCS1 [Example 84] | – | 3.92
55 | CCCON=Cc1ccc(-c2ccccc2NC(=O)C2=C(C(F)F)OCCS2)cc1F [Example 85] | – | 4.52
56 | CCCC(CC(C)C)c1ccccc1NC(=O)C1=C(C(F)(F)F)OCCS1 (stereo not drawn) [Example 87] | – | 4.65
57 | CCC(CC(C)C)c1ccccc1NC(=O)C1=C(C(F)(F)F)OCCS1 (stereo not drawn) [Example 88] | – | 4.30
58 | CC(=CC(C)C)c1ccccc1NC(=O)C1=C(C(F)(F)F)OCCS1 [Example 89] | – | 4.32
59 | CC(C)CC(C)c1ccccc1NC(=O)C1=C(C(F)(F)F)OCCS1(=O)=O (stereo not drawn) [Example 90] | – | 3.53
60 | O=C(Nc1ccccc1-c1ccc(Br)cc1)C1=C(C(F)(F)F)OCCS1(=O)=O [Example 91] | – | 3.35
